Results reported in patent publication US8569302B2, “Inhibitors of flaviviridae viruses” (Gilead Sciences, Inc., priority 2009, dated 2013).

System: human hepatoma Huh-7 cell line harboring a HCV replicon
Assay: HCV replicon assay (inhibition of viral replication, luciferase readout)
Type: cell-based
Details: Huh-7 HCV replicon cells, 3 days incubation; for inhibition at 2 µM: Hepatitis C virus, 72 h
Method in brief: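 Huh-7 replicon cells were exposed to 10-point 3-fold compound dilutions (0.44% DMSO) for 3 days at 37 °C. Replicon replication was read by Dual-Glo luciferase, with background from protease-inhibitor wells subtracted, and viability by calcein AM. EC50/CC50 came from a Hill-equation fit versus DMSO controls.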

`CC(C)(C)C#Cc1cc(N(C(=O)[C@H]2CC[C@H](C)CC2)[C@H]2CC[C@H](Sc3nnc4ccccn34)CC2)c(C(=O)O)s1` [Compound 92, 3-(N-(4-([1,2,4]-Triazolo[4,3-a]pyridin-3-ylthio)cyclohexyl)-4-methylcyclohexanecarboxamido)-5-(3,3-dimethylbut-1-ynyl)thiophene-2-carboxylic acid] was tested, and the inhibition at 2 µM was 100%.
For `CC(C)(C)C#Cc1cc(N(C(=O)[C@H]2CC[C@H](C)CC2)[C@H]2CC[C@H](Sc3cccs3)CC2)c(C(=O)O)s1` [Compound 93, 5-(3,3-Dimethylbut-1-ynyl)-3-(4-methyl-N-(4-(thiophen-2-ylthio)cyclohexyl)cyclohexanecarboxamido)thiophene-2-carboxylic acid], the inhibition at 2 µM was 98.1%.
`CC(C)(C)C#Cc1cc(N(C(=O)[C@H]2CC[C@H](C)CC2)[C@H]2CC[C@H](Sc3ncc[nH]3)CC2)c(C(=O)O)s1` [Compound 94, 3-(N-(4-(1H-Imidazol-2-ylthio)cyclohexyl)-4-methylcyclohexanecarboxamido)-5-(3,3-dimethylbut-1-ynyl)thiophene-2-carboxylic acid] was tested, and the inhibition at 2 µM was 99.9%.
Compound `CC(C)(C)C#Cc1cc(N(C(=O)[C@H]2CC[C@H](C)CC2)[C@H]2CC[C@H](Sc3nc(N)n[nH]3)CC2)c(C(=O)O)s1` [Compound 95, 3-(N-(4-(5-Amino-2H-1,2,4-triazol-3-ylthio)cyclohexyl)-4-methylcyclohexanecarboxamido)-5-(3,3-dimethylbut-1-ynyl)thiophene-2-carboxylic acid] has an inhibition at 2 µM of 99.9%.
Compound `CC(C)(C)C#Cc1cc(N(C(=O)[C@H]2CC[C@H](C)CC2)[C@H]2CC[C@H](Sc3nc[nH]n3)CC2)c(C(=O)O)s1` [Compound 97, 3-(N-(4-(1H-1,2,4-Triazol-3-ylthio)cyclohexyl)-4-methylcyclohexanecarboxamido)-5-(3,3-dimethylbut-1-ynyl)thiophene-2-carboxylic acid] has an inhibition at 2 µM of 99.9%.
`Cc1nnc(S[C@H]2CC[C@H](N(c3cc(C#CC(C)(C)C)sc3C(=O)O)C(=O)[C@H]3CC[C@H](C)CC3)CC2)o1` [Compound 98, 5-(3,3-Dimethylbut-1-ynyl)-3-(4-methyl-N-(4-(5-methyl-1,3,4-oxadiazol-2-ylthio)cyclohexyl)cyclohexanecarboxamido)thiophene-2-carboxylic acid] was tested, and the inhibition at 2 µM was 100%.
For `CC(C)(C)C#Cc1cc(N(C(=O)[C@H]2CC[C@H](C)CC2)[C@H]2CC[C@H](Sc3ccccn3)CC2)c(C(=O)O)s1` [Compound 99, 5-(3,3-Dimethylbut-1-ynyl)-3-(4-methyl-N-(4-(pyridin-2-ylthio)cyclohexyl)cyclohexanecarboxamido)thiophene-2-carboxylic acid], the inhibition at 2 µM was 97.7%.
In the case of `CC(C)(C)C#Cc1cc(N(C(=O)[C@H]2CC[C@H](C)CC2)[C@H]2CC[C@H](Sc3ncccn3)CC2)c(C(=O)O)s1` [Compound 100, 5-(3,3-Dimethylbut-1-ynyl)-3-(4-methyl-N-(4-(pyrimidin-2-ylthio)cyclohexyl)cyclohexanecarboxamido)thiophene-2-carboxylic acid], the inhibition at 2 µM is reported as 99.9%.
`Cn1nnnc1S[C@H]1CC[C@H](N(c2cc(C#CC(C)(C)C)sc2C(=O)O)C(=O)[C@H]2CC[C@H](C)CC2)CC1` [Compound 101, 5-(3,3-Dimethylbut-1-ynyl)-3-(4-methyl-N-(4-(1-methyl-1H-tetrazol-5-ylthio)cyclohexyl)cyclohexanecarboxamido)thiophene-2-carboxylic acid] was tested, and the inhibition at 2 µM was 100%.
For `Cc1nnc(S[C@H]2CC[C@H](N(c3cc(C#CC(C)(C)C)sc3C(=O)O)C(=O)[C@H]3CC[C@H](C)CC3)CC2)s1` [Compound 102, 5-(3,3-Dimethylbut-1-ynyl)-3-(4-methyl-N-(4-(5-methyl-1,3,4-thiadiazol-2-ylthio)cyclohexyl)cyclohexanecarboxamido)thiophene-2-carboxylic acid], the inhibition at 2 µM was 99.9%.
`Cc1nnc(S[C@H]2CC[C@@H](N(c3cc(C#CC(C)(C)C)sc3C(=O)O)C(=O)[C@H]3CC[C@H](C)CC3)CC2)s1` [Compound 103, 5-(3,3-Dimethylbut-1-ynyl)-3-(4-methyl-N-(4-(5-methyl-1,3,4-thiadiazol-2-ylthio)cyclohexyl)cyclohexanecarboxamido)thiophene-2-carboxylic acid] showed an inhibition at 2 µM of 98.3%.
With `Cn1nnnc1S[C@H]1CC[C@@H](N(c2cc(C#CC(C)(C)C)sc2C(=O)O)C(=O)[C@H]2CC[C@H](C)CC2)CC1` [Compound 104, 5-(3,3-Dimethylbut-1-ynyl)-3-(4-methyl-N-(4-(1-methyl-1H-tetrazol-5-ylthio)cyclohexyl)cyclohexanecarboxamido)thiophene-2-carboxylic acid] the inhibition at 2 µM was 98.7%.
For `CC(C)(C)C#Cc1cc(N(C(=O)[C@H]2CC[C@H](C)CC2)[C@H]2CC[C@@H](Sc3nncs3)CC2)c(C(=O)O)s1` [Compound 105, 3-(N-(4-(1,3,4-Thiadiazol-2-ylthio)cyclohexyl)-4-methylcyclohexanecarboxamido)-5-(3,3-dimethylbut-1-ynyl)thiophene-2-carboxylic acid], the inhibition at 2 µM was 99.9%.
Work on `CC(C)(C)C#Cc1cc(N(C(=O)[C@H]2CC[C@H](C)CC2)[C@H]2CC[C@H](Sc3nccs3)CC2)c(C(=O)O)s1` [Compound 106, 5-(3,3-Dimethylbut-1-ynyl)-3-(4-methyl-N-(4-(thiazol-2-ylthio)cyclohexyl)cyclohexanecarboxamido)thiophene-2-carboxylic acid] yielded an inhibition at 2 µM of 99.9%.
For `CC(C)(C)C#Cc1cc(N(C(=O)[C@H]2CC[C@H](C)CC2)[C@H]2CC[C@@H](Sc3nccs3)CC2)c(C(=O)O)s1` [Compound 107, 5-(3,3-Dimethylbut-1-ynyl)-3-(4-methyl-N-(4-(thiazol-2-ylthio)cyclohexyl)cyclohexanecarboxamido)thiophene-2-carboxylic acid], the inhibition at 2 µM was 98.9%.
`CC(C)(C)C#Cc1cc(N(C(=O)[C@H]2CC[C@H](C)CC2)[C@H]2CC[C@@H](Sc3ncccn3)CC2)c(C(=O)O)s1` [Compound 108, 5-(3,3-Dimethylbut-1-ynyl)-3-(4-methyl-N-(4-(pyrimidin-2-ylthio)cyclohexyl)cyclohexanecarboxamido)thiophene-2-carboxylic acid] showed an inhibition at 2 µM of 99.3%.
`CC(C)(C)C#Cc1cc(N(C(=O)[C@H]2CC[C@H](C)CC2)[C@H]2CC[C@H](S(=O)(=O)C3CCOCC3)CC2)c(C(=O)O)s1` [Compound 109, 5-(3,3-Dimethylbut-1-ynyl)-3-(4-methyl-N-(4-(tetrahydro-2H-pyran-4-ylsulfonyl)cyclohexyl)cyclohexanecarboxamido)thiophene-2-carboxylic acid] gave an inhibition at 2 µM of 99.9%.
Work on `Cn1nnnc1S(=O)(=O)[C@H]1CC[C@H](N(c2cc(C#CC(C)(C)C)sc2C(=O)O)C(=O)[C@H]2CC[C@H](C)CC2)CC1` [Compound 110, 5-(3,3-Dimethylbut-1-ynyl)-3-(4-methyl-N-(4-(1-methyl-1H-tetrazol-5-ylsulfonyl)cyclohexyl)cyclohexanecarboxamido)thiophene-2-carboxylic acid] yielded an inhibition at 2 µM of 100%.
`Cn1nnnc1[S+]([O-])[C@H]1CC[C@H](N(c2cc(C#CC(C)(C)C)sc2C(=O)O)C(=O)[C@H]2CC[C@H](C)CC2)CC1` (stereo partly drawn) [Compound 111, 5-(3,3-Dimethylbut-1-ynyl)-3-((1r,4S)-4-methyl-N-(4-((R)-1-methyl-1H-tetrazol-5-ylsulfinyl)cyclohexyl)cyclohexanecarboxamido)thiophene-2-carboxylic acid] was tested, and the inhibition at 2 µM was 99.8%.
Compound `CC1CCC(C(=O)N(CCOc2cccnc2)c2cc(C#CC(C)(C)C)sc2C(=O)O)CC1` (centres unmarked) [Compound 138] has an inhibition at 2 µM of 99.7%.
For `CC1CCC(C(=O)N(CCOc2ccccn2)c2cc(C#CC(C)(C)C)sc2C(=O)O)CC1` (centres unmarked) [Compound 139, 5-(3,3-dimethyl-but-1-ynyl)-3-{(4-methyl-cyclohexanecarbonyl)-[3-(pyridin-2-yloxy)-ethyl]-amino}-thiophene-2-carboxylic acid], the inhibition at 2 µM was 96.4%.
For `C[C@@H](CCOc1cncnc1)N(c1cc(C#CC(C)(C)C)sc1C(=O)O)C(=O)[C@H]1CC[C@H](C)CC1` [Compound 143, 5-(3,3-dimethyl-but-1-ynyl)-3-{(trans-4-methyl-cyclohexanecarbonyl)-[1-(S)-methyl-3-(pyrimidin-5-yloxy)-propyl]-amino}-thiophene-2-carboxylic acid], the inhibition at 2 µM was 100%.
With `CCOc1cc(OCC[C@H](C)N(c2cc(C#CC(C)(C)C)sc2C(=O)O)C(=O)[C@H]2CC[C@H](C)CC2)c2ccc(OC)c(C)c2n1` [Compound 144, 5-(3,3-dimethyl-but-1-ynyl)-3-[[3-(2-ethoxy-7-methoxy-8-methyl-quinolin-4-yloxy)-1-(S)-methyl-propyl]-(4-methyl-cyclohexanecarbonyl)-amino]-thiophene-2-carboxylic acid] the inhibition at 2 µM was 95.4%.
`CC(C)(C)C#Cc1cc(N(C(=O)[C@H]2CC[C@H](C)CC2)[C@H]2C[C@@H](Oc3ccc[n+]([O-])c3)C2)c(C(=O)O)s1` [Compound 145, 5-(3,3-Dimethyl-but-1-ynyl)-3-{(trans-4-methyl-cyclohexanecarbonyl)-[cis-3-(pyridin-3-yloxy-N-oxide)-cyclobutyl]-amino}-thiophene-2-carboxylic acid] was tested, and the “% inhibition at 2μM” value was 99.5%.
`CC(C)(C)C#Cc1cc(N(C(=O)[C@H]2CC[C@H](C)CC2)[C@H]2C[C@@H](Oc3ccccn3)C2)c(C(=O)O)s1` [Compound 146, 5-(3,3-Dimethylbut-1-ynyl)-3-(4-methyl-N-(3-(pyridin-2-yloxy)cyclobutyl)cyclohexanecarboxamido)thiophene-2-carboxylic acid] showed an inhibition at 2 µM of 99.2%.
With `CC(C)(C)C#Cc1cc(N(C(=O)[C@H]2CC[C@H](C)CC2)[C@H]2CC[C@H](Oc3cc[nH]c(=O)n3)CC2)c(C(=O)O)s1` [Compound 147, 5-(3,3-Dimethyl-but-1-ynyl)-3-{(trans-4-methyl-cyclohexanecarbonyl)-[trans-4-(2-oxo-1,2-dihydro-pyrimidin-4-yloxy)-cyclohexyl]-amino}-thiophene-2-carboxylic acid] the inhibition at 2 µM was 99.9%.
